Experiments:
[1] = Thiol reactivity: substitution reaction of the conjugation agent with MESNA, followed by HPLC; details: for krel (MESNA): Table 2, water soluble conjugation agents, determined as for Table 1
Procedure: (§1) The measures of thiol reactivities, thiol chemoselectivities, and aqueous stabilities were determined by the rate constants for the corresponding processes, i.e., relative rate constants for reaction with thiol-containing groups (thiol reactivity), the ratio of thiol to amine rate constants (chemoselectivity for thiol-containing groups), and the rate constant for decomposition of the non-bonded conjugation agent in an aqueous environment (aqueous stability). Equations used in the interpretation of kinetic experiments may be found in J. H. Espenson, Chemical Kinetics and Reaction Mechanisms; McGraw-Hill: New York, 1981.
For the reactivity measurements, […] (MESNA) was used as the thiol-containing target, and lysine (Lys) was used as the amine target. The relevant reaction sequences are shown below, where LG is a leaving group, such as a halide, or alternatively a leaving group of the invention (Sx—Rs), such as an N-ethylmercaptotetrazolyl (EMT) group. All reactions were carried out at standard temperature and pressure. [drawing 20]
(§2) The general structure of the conjugation agents used in Example 1 is shown below in formula V, and details of the structure for each conjugation agent are provided in Table 1. […] The selectivity is the ratio of krel(MESNA)/krel(Lys). The lifetime (τ) of a conjugation agent was measured as the time required for loss of about 66% of the starting amount in the solution of 80% phosphate buffer (pH 7)/20% acetonitrile. […] The progress of the reactions was followed by high performance liquid chromatography (HPLC) for up to 1 week. For lifetimes longer than about one week, the values were estimated based on the observed extent of decomposition, where possible. Conjugates labeled “I” are inventive; those labeled “C” are comparative. [drawing 21]
(§3) The hydrolytic stability data was determined as the lifetime (r) as defined above, but in neutral (pH 7) aqueous phosphate buffer. Formulas for comparative conjugation agents C4-C10, and inventive conjugation agents I2-I6, are shown below. [drawing 22] [drawing 23]

[2] = Aqueous stability: lifetime of the non-bonded conjugation agent (hydrolysis), followed by HPLC; type: physicochemical; details: Table 2, neutral (pH 7) aqueous phosphate buffer, time for loss of about 66%
Procedure: as §1, §2
Selectivity values were generated using the lowest detection limit of the equipment as the value of krel(Lys).
as §3

[3] = Transamination of I7 with a lysine amide; details: ambient temperature, pH 5.65
Source text: Inventive conjugation agent I7 is an example of a conjugation agent designed to sequentially link a substrate containing amine groups, such as a support coated with gelatin, to a target containing thiol groups. [drawing 24] I7 was formed by conversion of the carboxylic acid functionality in I5 into a sulfosuccinate ester via standard procedures shown below in Example 3. This provided a functional group that was reactive towards amine groups. Near quantitative reaction of I7 with a corresponding lysine amide was conducted under transamination conditions (ambient temperature, pH 5.65, bimolecular rate constant for transamination, kbi=3.3 M^−1min^−1). This reaction was carried out under mildly acidic conditions to minimize the known competing hydrolysis of the sulfosuccinate ester. The resultant conjugate was called I8.

Structure (SMILES)	krel (MESNA) [1]	also measured
C=CS(=O)(=O)CS(=O)(=O)C=C [C9, bis(vinylsulfonyl)methane, reference compound]	0.7	Lifetime [2]: 0.75 days
CCN1C(=O)C=CC1=O [C10, N-ethylmaleimide, reference compound]	24.3	Lifetime [2]: 1 days
CCn1nnnc1Sc1cc(C(=O)NCCC(=O)O)c([N+](=O)[O-])cc1[N+](=O)[O-] [I3]	0.1	–
CCn1nnnc1Sc1c(C(=O)NCCC(=O)O)cc([N+](=O)[O-])cc1[N+](=O)[O-] [I4]	0.4	Reactivity towards thiol-containing groups relative to C6 ([1]; Table 2 data): 100 times
CCn1nnnc1Sc1c([N+](=O)[O-])cc(C(=O)NCCC(=O)O)cc1[N+](=O)[O-] [I5]	1.0	krel(thiol, I5)/krel(thiol, 12) ([1]; ratio of Table 2 krel values): about 125
CCn1nnnc1Sc1cc[n+](Cc2ccccc2)cc1 [I6]	1.9	Lifetime ([2]; nd = hydrolysis not detected): 24 days
CCn1nnnc1Sc1c([N+](=O)[O-])cc(C(=O)NCCC(=O)ON2C(=O)CC(S(=O)(=O)[O-])C2=O)cc1[N+](=O)[O-].[Na+] (stereo not drawn) [I7]	–	bimolecular rate constant for transamination, kbi [3]: 0.055 M⁻¹ s⁻¹
